Laboratory results reported in US20240208992A1, “MACROCYCLES AS CFTR MODULATORS” (Idorsia Pharmaceuticals Ltd, priority 2021, published 2024).

Target: human F508del-CFTR (Homo sapiens, UniProt P13569, DEL508-508)
Assay: F508del-CFTR cell surface expression (corrector activity), DiscoveRx ß-galactosidase complementation chemiluminescence assay in recombinant U2OS cell line;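 further: U2OS cells co-expressing ProLink-tagged F508del-CFTR and a membrane-anchored enzyme acceptor, where more surface CFTR restores β-galactosidase activity measured by chemiluminescence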
Settings: U2OS cells, 16h compound incubation; for EC50: EC50, F508del-CFTR cell surface expression, geomean of several measurements; for Emax: U2OS, in relation to the Emax of the corrector lumacaftor (=100%), arithmetic mean

Sequence of human F508del-CFTR (P13569 with tags, fused parts or gaps DEL508-508): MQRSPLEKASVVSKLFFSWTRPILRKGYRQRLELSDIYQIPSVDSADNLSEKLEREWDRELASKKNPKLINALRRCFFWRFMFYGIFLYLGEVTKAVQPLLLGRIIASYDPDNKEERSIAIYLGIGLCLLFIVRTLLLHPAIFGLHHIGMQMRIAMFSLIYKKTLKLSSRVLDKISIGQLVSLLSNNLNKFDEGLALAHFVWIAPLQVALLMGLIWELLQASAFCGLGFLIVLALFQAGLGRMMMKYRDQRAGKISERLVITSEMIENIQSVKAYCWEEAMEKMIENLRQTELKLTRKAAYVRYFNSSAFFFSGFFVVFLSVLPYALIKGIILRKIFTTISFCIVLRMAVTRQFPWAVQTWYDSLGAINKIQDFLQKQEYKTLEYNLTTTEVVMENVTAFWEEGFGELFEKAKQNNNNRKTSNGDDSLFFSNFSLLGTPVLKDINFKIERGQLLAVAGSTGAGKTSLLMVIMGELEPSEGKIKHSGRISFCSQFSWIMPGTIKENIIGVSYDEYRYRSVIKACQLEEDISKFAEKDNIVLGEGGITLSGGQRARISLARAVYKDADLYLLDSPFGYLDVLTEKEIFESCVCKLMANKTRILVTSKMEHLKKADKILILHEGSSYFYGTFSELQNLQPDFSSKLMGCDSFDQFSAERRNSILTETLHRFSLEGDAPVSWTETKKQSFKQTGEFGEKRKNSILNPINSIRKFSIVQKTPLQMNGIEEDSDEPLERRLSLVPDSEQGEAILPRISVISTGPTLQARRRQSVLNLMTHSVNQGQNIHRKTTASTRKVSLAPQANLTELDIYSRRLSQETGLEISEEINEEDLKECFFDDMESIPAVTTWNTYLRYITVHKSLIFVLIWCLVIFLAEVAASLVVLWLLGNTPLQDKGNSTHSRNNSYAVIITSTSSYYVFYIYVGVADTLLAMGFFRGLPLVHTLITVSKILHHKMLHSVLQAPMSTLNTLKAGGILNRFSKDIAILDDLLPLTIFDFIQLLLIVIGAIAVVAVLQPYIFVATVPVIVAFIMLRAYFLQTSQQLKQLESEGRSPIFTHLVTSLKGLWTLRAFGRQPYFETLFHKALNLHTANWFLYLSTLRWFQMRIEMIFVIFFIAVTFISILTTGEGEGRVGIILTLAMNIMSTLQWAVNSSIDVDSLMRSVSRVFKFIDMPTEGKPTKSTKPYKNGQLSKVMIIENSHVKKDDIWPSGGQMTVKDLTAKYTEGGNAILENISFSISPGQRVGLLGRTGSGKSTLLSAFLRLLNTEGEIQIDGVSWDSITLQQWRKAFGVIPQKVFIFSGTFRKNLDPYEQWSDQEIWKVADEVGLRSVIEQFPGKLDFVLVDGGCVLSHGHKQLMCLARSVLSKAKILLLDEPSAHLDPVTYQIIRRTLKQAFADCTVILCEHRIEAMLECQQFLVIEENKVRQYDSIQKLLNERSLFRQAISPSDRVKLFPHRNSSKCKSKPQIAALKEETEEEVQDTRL

| EC50 [nM] | Emax [%] | Structure (SMILES) |
| --- | --- | --- |
| 363 | 326 | COc1nc(C)cc2c1C(=O)N[C@H](C(=O)NCCn1nnc(C3CC3)n1)CC(=O)N(C)[C@@H](CC(C)C)C(=O)N1CCCC[C@@H]1C(=O)N[C@H](Cc1ccccc1)CO2 [Example 835, (7S,11S,17aR,20R)-20-benzyl-N-(2-(5-cyclopropyl-2H-tetrazol-2-yl)ethyl)-11-isobutyl-4-methoxy-2,10-dimethyl-5,9,12,18-tetraoxo-5,6,7,8,9,10,11,12,15,16,17,17a,18,19,20,21-hexadecahydro-14H-dipyrido[2,1-f:3′,4′-p][1]oxa[4,7,10,14]tetraazacycloheptadecine-7-carboxamide] |
| 967 | 257 | COc1nc(C)cc2c1C(=O)N[C@H](C(=O)NCCn1ncc(C#N)n1)CC(=O)N(C)[C@@H](CC(C)C)C(=O)N1CCCC[C@@H]1C(=O)N[C@H](Cc1ccccc1)CO2 [Example 836, (7S,11S,17aR,20R)-20-benzyl-N-(2-(4-cyano-2H-1,2,3-triazol-2-yl)ethyl)-11-isobutyl-4-methoxy-2,10-dimethyl-5,9,12,18-tetraoxo-5,6,7,8,9,10,11,12,15,16,17,17a,18,19,20,21-hexadecahydro-14H-dipyrido[2,1-f:3′,4′-p][1]oxa[4,7,10,14]tetraazacycloheptadecine-7-carboxamide] |
| 198 | 358 | CC(C)C[C@H]1C(=O)N(C)[C@H](Cc2nc(-c3ccc(F)cn3)no2)C(=O)N[C@H](Cc2ccccc2)COc2cnc3ccc(F)cc3c2C(=O)N[C@H](C(=O)NCCn2ncc(C3CC3)n2)CC(=O)N1C [Example 837, (3S,7S,10R,13R)-13-benzyl-N-(2-(4-cyclopropyl-2H-1,2,3-triazol-2-yl)ethyl)-20-fluoro-10-((3-(5-fluoropyridin-2-yl)-1,2,4-oxadiazol-5-yl)methyl)-7-isobutyl-6,9-dimethyl-1,5,8,11-tetraoxo-1,2,3,4,5,6,7,8,9,10,11,12,13,14-tetradecahydro-[1]oxa[4,7,10,14]tetraazacycloheptadecino[17,16-c]quinoline-3-carboxamide] |
| 118 | 358 | CC(C)C[C@H]1C(=O)N(C)C2(CC(F)(F)C2)C(=O)N[C@H](Cc2ccccc2)COc2cnc3ccc(F)cc3c2C(=O)N[C@H](C(=O)NCCn2nnc(C3CC3)n2)CC(=O)N1C [Example 838, (3′S,7′S,13′R)-13′-benzyl-N-(2-(5-cyclopropyl-2H-tetrazol-2-yl)ethyl)-3,3,20′-trifluoro-7′-isobutyl-6′,9′-dimethyl-1′,5′,8′,11′-tetraoxo-2′,3′,4′,5′,6′,7′,8′,9′,11′,12′,13′,14′-dodecahydro-1′H-spiro[cyclobutane-1,10′-[1]oxa[4,7,10,14]tetraazacycloheptadecino[17,16-c]quinoline]-3′-carboxamide] |
| 123 | 336 | COc1cc(CCNC(=O)[C@@H]2CC(=O)N(C)[C@@H](CC(C)C)C(=O)N(C)C3(CC(F)(F)C3)C(=O)N[C@H](Cc3ccccc3)COc3cnc4ccc(F)cc4c3C(=O)N2)on1 [Example 839, (3′S,7′S,13′R)-13′-benzyl-3,3,20′-trifluoro-7′-isobutyl-N-(2-(3-methoxyisoxazol-5-yl)ethyl)-6′,9′-dimethyl-1′,5′,8′,11′-tetraoxo-2′,3′,4′,5′,6′,7′,8′,9′,11′,12′,13′,14′-dodecahydro-1′H-spiro[cyclobutane-1,10′-[1]oxa[4,7,10,14]tetraazacycloheptadecino[17,16-c]quinoline]-3′-carboxamide] |
| 128 | 363 | CC(C)C[C@H]1C(=O)N(C)[C@H](Cc2nc(-c3ccc(F)cn3)no2)C(=O)N[C@H](Cc2ccccc2)COc2cnc3ccc(F)cc3c2C(=O)N[C@H](C(=O)NCCn2nc3ccccc3n2)CC(=O)N1C [Example 840, (3S,7S,10R,13R)-N-(2-(2H-benzo[d][1,2,3]triazol-2-yl)ethyl)-13-benzyl-20-fluoro-10-((3-(5-fluoropyridin-2-yl)-1,2,4-oxadiazol-5-yl)methyl)-7-isobutyl-6,9-dimethyl-1,5,8,11-tetraoxo-1,2,3,4,5,6,7,8,9,10,11,12,13,14-tetradecahydro-[1]oxa[4,7,10,14]tetraazacycloheptadecino[17,16-c]quinoline-3-carboxamide] |
| 120 | 271 | CC(C)C[C@H]1C(=O)N(C)C2(CC(F)(F)C2)C(=O)N[C@H](Cc2ccccc2)COc2cnc3ccc(F)cc3c2C(=O)N[C@H](C(=O)NCCc2nc(C3CC3)no2)CC(=O)N1C [Example 841, (3′S,7′S,13′R)-13′-benzyl-N-(2-(3-cyclopropyl-1,2,4-oxadiazol-5-yl)ethyl)-3,3,20′-trifluoro-7′-isobutyl-6′,9′-dimethyl-1′,5′,8′,11′-tetraoxo-2′,3′,4′,5′,6′,7′,8′,9′,11′,12′,13′,14′-dodecahydro-1′H-spiro[cyclobutane-1,10′-[1]oxa[4,7,10,14]tetraazacycloheptadecino[17,16-c]quinoline]-3′-carboxamide] |
| 114 | 368 | COc1ccc(CCNC(=O)[C@@H]2CC(=O)N(C)[C@@H](CC(C)C)C(=O)N(C)[C@H](Cc3nc(-c4ccc(F)cn4)no3)C(=O)N[C@H](Cc3ccccc3)COc3cnc4ccc(F)cc4c3C(=O)N2)cn1 [Example 843, (3S,7S,10R,13R)-13-benzyl-20-fluoro-10-((3-(5-fluoropyridin-2-yl)-1,2,4-oxadiazol-5-yl)methyl)-7-isobutyl-N-(2-(6-methoxypyridin-3-yl)ethyl)-6,9-dimethyl-1,5,8,11-tetraoxo-1,2,3,4,5,6,7,8,9,10,11,12,13,14-tetradecahydro-[1]oxa[4,7,10,14]tetraazacycloheptadecino[17,16-c]quinoline-3-carboxamide] |
| 1040 | 356 | CC(C)C[C@H]1C(=O)N(C)[C@H](Cc2nc(-c3ccc(F)cn3)no2)C(=O)N[C@H](Cc2ccccc2)COc2cnc3ccc(F)cc3c2C(=O)N[C@H](C(=O)NCCc2nc3ncccn3n2)CC(=O)N1C [Example 844, (3S,7S,10R,13R)-N-(2-([1,2,4]triazolo[1,5-a]pyrimidin-2-yl)ethyl)-13-benzyl-20-fluoro-10-((3-(5-fluoropyridin-2-yl)-1,2,4-oxadiazol-5-yl)methyl)-7-isobutyl-6,9-dimethyl-1,5,8,11-tetraoxo-1,2,3,4,5,6,7,8,9,10,11,12,13,14-tetradecahydro-[1]oxa[4,7,10,14]tetraazacycloheptadecino[17,16-c]quinoline-3-carboxamide] |
| 453 | 308 | COCCCNC(=O)[C@@H]1CC(=O)N(C)[C@@H](CC(C)C)C(=O)N(C)[C@H](Cc2nc(-c3ccc(F)cn3)no2)C(=O)N[C@H](Cc2ccccc2)COc2cnc3ccc(F)cc3c2C(=O)N1 [Example 845, (3S,7S,10R,13R)-13-benzyl-20-fluoro-10-((3-(5-fluoropyridin-2-yl)-1,2,4-oxadiazol-5-yl)methyl)-7-isobutyl-N-(3-methoxypropyl)-6,9-dimethyl-1,5,8,11-tetraoxo-1,2,3,4,5,6,7,8,9,10,11,12,13,14-tetradecahydro-[1]oxa[4,7,10,14]tetraazacycloheptadecino[17,16-c]quinoline-3-carboxamide] |
| 165 | 261 | CC(C)C[C@H]1C(=O)N(C)[C@H](Cc2nc(-c3ccc(F)cn3)no2)C(=O)N[C@H](Cc2ccccc2)COc2cnc3ccc(F)cc3c2C(=O)N[C@H](C(=O)NCCCOC(F)(F)F)CC(=O)N1C [Example 846, (3S,7S,10R,13R)-13-benzyl-20-fluoro-10-((3-(5-fluoropyridin-2-yl)-1,2,4-oxadiazol-5-yl)methyl)-7-isobutyl-6,9-dimethyl-1,5,8,11-tetraoxo-N-(3-(trifluoromethoxy)propyl)-1,2,3,4,5,6,7,8,9,10,11,12,13,14-tetradecahydro-[1]oxa[4,7,10,14]tetraazacycloheptadecino[17,16-c]quinoline-3-carboxamide] |
| 186 | 340 | COc1ccc(CCNC(=O)[C@@H]2CC(=O)N(C)[C@@H](CC(C)C)C(=O)N(C)[C@H](Cc3nc(-c4ccc(F)cn4)no3)C(=O)N[C@H](Cc3ccccc3)COc3cnc4ccc(F)cc4c3C(=O)N2)nc1 [Example 847, (3S,7S,10R,13R)-13-benzyl-20-fluoro-10-((3-(5-fluoropyridin-2-yl)-1,2,4-oxadiazol-5-yl)methyl)-7-isobutyl-N-(2-(5-methoxypyridin-2-yl)ethyl)-6,9-dimethyl-1,5,8,11-tetraoxo-1,2,3,4,5,6,7,8,9,10,11,12,13,14-tetradecahydro-[1]oxa[4,7,10,14]tetraazacycloheptadecino[17,16-c]quinoline-3-carboxamide] |

| Structure (SMILES) | EC50 [nM] | Emax [%] |
| --- | --- | --- |
| CC(C)C[C@H]1C(=O)N(C)[C@H](Cc2nc(-c3ccc(F)cn3)no2)C(=O)N[C@H](Cc2ccccc2)COc2cnc3ccc(F)cc3c2C(=O)N[C@H](C(=O)NC[C@@H](O)c2ccccc2)CC(=O)N1C [Example 842, (3S,7S,10R,13R)-13-benzyl-20-fluoro-10-((3-(5-fluoropyridin-2-yl)-1,2,4-oxadiazol-5-yl)methyl)-N-((S)-2-hydroxy-2-phenylethyl)-7-isobutyl-6,9-dimethyl-1,5,8,11-tetraoxo-1,2,3,4,5,6,7,8,9,10,11,12,13,14-tetradecahydro-[1]oxa[4,7,10,14]tetraazacycloheptadecino[17,16-c]quinoline-3-carboxamide] | 495 | 305 |
| COc1nc(C)cc2c1C(=O)N[C@H](C(=O)NC[C@@H](O)c1ccccc1)CC(=O)N(C)[C@@H](CC(C)C)C(=O)N(C)[C@H](Cc1nc(C(F)(F)F)no1)C(=O)N[C@H](Cc1ccccc1)CO2 [Example 848, (3R,6R,9S,13S)-3-benzyl-N-((S)-2-hydroxy-2-phenylethyl)-9-isobutyl-16-methoxy-7,10,18-trimethyl-5,8,11,15-tetraoxo-6-((3-(trifluoromethyl)-1,2,4-oxadiazol-5-yl)methyl)-2,3,4,5,6,7,8,9,10,11,12,13,14,15-tetradecahydropyrido[3,4-p][1]oxa[4,7,10,14]tetraazacycloheptadecine-13-carboxamide] | 225 | 364 |
